Reference: patent publication US10670605B2, “Cysteine reactive probes and uses thereof” (The Scripps Research Institute, priority 2015, dated 2020)
Values belong to the compound of their own block, whether it stands above or below them.

Experiments:
Test in all cases: Competitive isoTOP-ABPP in situ (fragment-treated cells)
Type in all cases: cell-based
[1] = target: T1, cysteines in MDA-MB-231 and Ramos cells (Homo sapiens, UniProt Q13158); details: 200 μM, insitu, 231
T1 sequence (Q13158 1-208): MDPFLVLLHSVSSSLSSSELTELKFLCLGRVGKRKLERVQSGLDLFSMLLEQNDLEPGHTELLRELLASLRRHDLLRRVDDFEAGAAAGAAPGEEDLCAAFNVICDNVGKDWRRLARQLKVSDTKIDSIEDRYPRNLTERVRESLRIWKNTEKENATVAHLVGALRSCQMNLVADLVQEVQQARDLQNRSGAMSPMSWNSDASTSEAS

[2] = target: T2, cysteines in MDA-MB-231 and Ramos cells (Homo sapiens, UniProt Q9UPQ0)
T2 sequence (Q9UPQ0 1-1083): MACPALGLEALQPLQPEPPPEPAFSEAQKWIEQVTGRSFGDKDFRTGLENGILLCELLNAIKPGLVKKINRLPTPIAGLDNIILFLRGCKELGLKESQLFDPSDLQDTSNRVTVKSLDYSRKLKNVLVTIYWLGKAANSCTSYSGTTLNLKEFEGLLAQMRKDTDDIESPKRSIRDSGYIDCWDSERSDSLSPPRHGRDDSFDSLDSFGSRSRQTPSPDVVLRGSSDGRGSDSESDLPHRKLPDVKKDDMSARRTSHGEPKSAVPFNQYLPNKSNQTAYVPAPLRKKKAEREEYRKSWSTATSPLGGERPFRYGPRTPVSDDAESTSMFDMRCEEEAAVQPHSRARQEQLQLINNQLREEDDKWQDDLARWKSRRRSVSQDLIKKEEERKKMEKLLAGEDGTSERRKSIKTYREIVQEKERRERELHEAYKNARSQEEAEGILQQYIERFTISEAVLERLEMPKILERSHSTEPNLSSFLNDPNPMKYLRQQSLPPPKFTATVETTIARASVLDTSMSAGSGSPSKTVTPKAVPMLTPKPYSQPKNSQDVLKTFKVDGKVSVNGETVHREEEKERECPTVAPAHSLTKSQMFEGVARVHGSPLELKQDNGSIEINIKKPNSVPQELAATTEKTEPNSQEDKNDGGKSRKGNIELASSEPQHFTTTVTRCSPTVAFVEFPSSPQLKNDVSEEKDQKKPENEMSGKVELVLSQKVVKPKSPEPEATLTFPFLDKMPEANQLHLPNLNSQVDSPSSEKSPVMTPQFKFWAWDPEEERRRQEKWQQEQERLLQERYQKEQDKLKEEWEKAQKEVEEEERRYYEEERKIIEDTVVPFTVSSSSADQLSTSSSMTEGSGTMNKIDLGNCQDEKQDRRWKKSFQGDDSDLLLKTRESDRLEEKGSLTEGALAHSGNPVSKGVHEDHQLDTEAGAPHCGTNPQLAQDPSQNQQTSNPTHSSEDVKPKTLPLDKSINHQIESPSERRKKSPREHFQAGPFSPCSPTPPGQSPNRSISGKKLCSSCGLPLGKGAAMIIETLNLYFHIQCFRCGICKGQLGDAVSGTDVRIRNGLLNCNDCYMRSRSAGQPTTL

[3] = target: cysteines in MDA-MB-231 and Ramos cells (Homo sapiens, UniProt O60825); details: 200 μM, insitu
[4] = target: T3, cysteines in MDA-MB-231 and Ramos cells (Homo sapiens, UniProt Q9NXV6)
T3 sequence (Q9NXV6 1-580): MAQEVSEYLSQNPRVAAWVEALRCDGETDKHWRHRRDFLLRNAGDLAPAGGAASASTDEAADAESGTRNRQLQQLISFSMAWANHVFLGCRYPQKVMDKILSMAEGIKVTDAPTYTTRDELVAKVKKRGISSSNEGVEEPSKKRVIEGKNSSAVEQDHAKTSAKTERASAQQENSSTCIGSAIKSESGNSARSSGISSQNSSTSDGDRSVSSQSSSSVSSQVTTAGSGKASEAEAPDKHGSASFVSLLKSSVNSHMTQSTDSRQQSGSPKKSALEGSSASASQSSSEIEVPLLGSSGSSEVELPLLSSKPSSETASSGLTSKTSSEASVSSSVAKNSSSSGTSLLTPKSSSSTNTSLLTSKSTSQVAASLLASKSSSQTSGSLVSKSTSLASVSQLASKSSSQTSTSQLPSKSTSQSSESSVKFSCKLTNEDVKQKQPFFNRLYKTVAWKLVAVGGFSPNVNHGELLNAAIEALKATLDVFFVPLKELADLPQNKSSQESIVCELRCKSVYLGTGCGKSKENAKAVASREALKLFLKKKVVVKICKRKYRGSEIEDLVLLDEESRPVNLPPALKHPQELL

[5] = target: cysteines in MDA-MB-231 and Ramos cells (Homo sapiens, UniProt P07858)
[6] = target: T4, cysteines in MDA-MB-231 and Ramos cells (Homo sapiens, UniProt Q96C19)
T4 sequence (Q96C19 1-240): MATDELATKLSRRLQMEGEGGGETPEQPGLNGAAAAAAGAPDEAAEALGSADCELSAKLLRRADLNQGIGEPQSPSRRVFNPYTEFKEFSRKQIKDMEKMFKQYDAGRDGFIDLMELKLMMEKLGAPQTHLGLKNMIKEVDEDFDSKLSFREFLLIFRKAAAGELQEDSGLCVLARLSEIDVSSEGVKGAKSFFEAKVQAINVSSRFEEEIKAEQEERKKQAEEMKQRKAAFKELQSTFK

[7] = target: cysteines in MDA-MB-231 and Ramos cells (Homo sapiens, UniProt Q96RP9); details: for isoTOP-ABPP ratio, cysteine Q96RP9_C153: 200 μM, insitu
[8] = target: cysteines in MDA-MB-231 and Ramos cells (Homo sapiens, UniProt Q9UNI6); details: for isoTOP-ABPP ratio, cysteine Q9UNI6_C265: 200 μM, insitu, 231
[9] = target: T5, cysteines in MDA-MB-231 and Ramos cells (Homo sapiens, UniProt P09110)
T5 sequence (P09110 27-424): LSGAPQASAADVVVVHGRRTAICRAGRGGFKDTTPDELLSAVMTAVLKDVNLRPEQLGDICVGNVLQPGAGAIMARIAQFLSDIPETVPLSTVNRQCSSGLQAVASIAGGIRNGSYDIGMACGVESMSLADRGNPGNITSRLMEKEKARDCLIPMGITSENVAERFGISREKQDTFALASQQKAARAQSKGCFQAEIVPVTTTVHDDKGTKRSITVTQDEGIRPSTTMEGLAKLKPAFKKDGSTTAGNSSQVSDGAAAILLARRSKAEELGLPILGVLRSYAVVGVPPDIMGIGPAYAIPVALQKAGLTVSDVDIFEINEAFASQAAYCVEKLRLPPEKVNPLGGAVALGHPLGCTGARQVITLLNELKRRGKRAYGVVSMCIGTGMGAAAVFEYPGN

Sequence of cysteines in MDA-MB-231 and Ramos cells (Homo sapiens, UniProt Q96RP9) (Q96RP9 37-751): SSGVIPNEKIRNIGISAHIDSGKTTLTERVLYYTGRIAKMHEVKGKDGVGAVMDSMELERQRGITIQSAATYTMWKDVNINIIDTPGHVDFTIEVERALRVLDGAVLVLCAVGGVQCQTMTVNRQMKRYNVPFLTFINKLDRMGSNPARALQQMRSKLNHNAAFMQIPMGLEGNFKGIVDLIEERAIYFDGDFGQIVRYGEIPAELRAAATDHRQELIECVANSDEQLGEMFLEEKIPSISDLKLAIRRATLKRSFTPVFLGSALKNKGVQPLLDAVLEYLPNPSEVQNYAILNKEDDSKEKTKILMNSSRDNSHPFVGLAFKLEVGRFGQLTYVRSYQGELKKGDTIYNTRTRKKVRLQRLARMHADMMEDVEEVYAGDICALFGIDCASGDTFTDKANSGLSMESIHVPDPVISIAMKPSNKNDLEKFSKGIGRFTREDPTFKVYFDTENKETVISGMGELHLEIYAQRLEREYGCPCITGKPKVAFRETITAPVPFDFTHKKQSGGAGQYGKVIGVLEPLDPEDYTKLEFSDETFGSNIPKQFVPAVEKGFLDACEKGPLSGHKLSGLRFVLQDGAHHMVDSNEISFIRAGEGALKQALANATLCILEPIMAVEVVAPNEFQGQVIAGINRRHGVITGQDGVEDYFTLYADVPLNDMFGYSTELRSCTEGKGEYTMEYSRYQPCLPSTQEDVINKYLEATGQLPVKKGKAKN
Sequence of cysteines in MDA-MB-231 and Ramos cells (Homo sapiens, UniProt Q9UNI6) (Q9UNI6 whole entry): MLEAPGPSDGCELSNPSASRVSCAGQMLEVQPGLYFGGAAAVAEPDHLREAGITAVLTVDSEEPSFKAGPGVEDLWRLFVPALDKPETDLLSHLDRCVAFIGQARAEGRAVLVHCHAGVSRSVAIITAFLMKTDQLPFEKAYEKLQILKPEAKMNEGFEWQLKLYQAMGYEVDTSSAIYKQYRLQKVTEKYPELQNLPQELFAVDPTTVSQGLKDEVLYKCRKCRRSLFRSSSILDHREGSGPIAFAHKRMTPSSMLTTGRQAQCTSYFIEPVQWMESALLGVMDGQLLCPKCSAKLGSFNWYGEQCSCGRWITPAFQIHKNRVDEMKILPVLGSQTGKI
Sequence of cysteines in MDA-MB-231 and Ramos cells (Homo sapiens, UniProt O60825) (O60825 whole entry): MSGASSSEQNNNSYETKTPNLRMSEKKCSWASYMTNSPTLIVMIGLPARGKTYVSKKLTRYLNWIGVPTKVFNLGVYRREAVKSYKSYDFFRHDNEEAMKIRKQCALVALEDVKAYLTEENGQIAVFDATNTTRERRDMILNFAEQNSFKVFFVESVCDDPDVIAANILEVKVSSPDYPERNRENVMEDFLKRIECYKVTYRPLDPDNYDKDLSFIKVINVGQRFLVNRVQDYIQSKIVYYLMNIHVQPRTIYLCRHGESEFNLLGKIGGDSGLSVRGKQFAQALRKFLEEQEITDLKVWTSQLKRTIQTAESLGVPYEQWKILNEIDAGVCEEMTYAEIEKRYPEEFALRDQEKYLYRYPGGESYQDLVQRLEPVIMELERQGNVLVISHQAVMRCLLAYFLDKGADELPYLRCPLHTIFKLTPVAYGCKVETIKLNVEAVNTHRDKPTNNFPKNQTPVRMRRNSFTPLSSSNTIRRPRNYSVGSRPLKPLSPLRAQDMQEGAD

isoTOP-ABPP reactivity Q13158_C98 FADD [1]: 20.0 | isoTOP-ABPP reactivity Q9UPQ0_C140 LIMCH1 ([2]; 200 μM, insitu, 231): 20.0 | isoTOP-ABPP reactivity O60825_C158 PFKFB2 [3]; 231: 0.7 | isoTOP-ABPP reactivity Q9NXV6_C516 CDKN2AEP ([4]; 200 μM, insitu, 231): 20.0
Compound: COc1ccc2c(c1)CCCN2C(=O)CCl [compound 2]

isoTOP-ABPP reactivity P07858_C211 CTSB ([5]; 100 μM in situ 231): 2.3 | isoTOP-ABPP reactivity Q96C19_C172 EFHD2 ([6]; 100 μM in situ 231): 5.3 | isoTOP-ABPP reactivity Q96RP9_C153 GFM1 ([7]; 100 μM in situ 231): 1.0 | isoTOP-ABPP reactivity Q9UNI6_C265 DUSP12 ([8]; 100 μM in situ 231): 0.8
Compound: COc1ccc(C2CC(c3cccs3)=NN2C(=O)CCl)cc1 (centres unmarked) [compound 4]

isoTOP-ABPP reactivity Q9UPQ0_C140 LIMCH1 ([2]; 200 μM, insitu, 231): 20.0 | isoTOP-ABPP reactivity P09110_C381 ACAA1 ([9]; 200 μM, insitu, 231): 0.8
Compound: COc1cc2c(cc1OC)CN(C(=O)CCl)CC2 [compound 8]

isoTOP-ABPP reactivity P07858_C211 CTSB ([5]; 200 μM, insitu, 231): 5.0 | isoTOP-ABPP reactivity Q9NXV6_C516 CDKN2AEP ([4]; 200 μM, insitu, 231): 6.6 | isoTOP-ABPP reactivity Q96C19_C172 EFHD2 ([6]; 200 μM, insitu, 231): 2.8
Compound: O=C(CCl)N1CCC(Cc2ccccc2)CC1 [compound 9]

isoTOP-ABPP ratio Q9UPQ0_C140 ([2]; 200 μM, insitu, 231): 3.9 | isoTOP-ABPP ratio O60825_C158 [3]; 231: 0.7 | isoTOP-ABPP ratio O60825_C158 ([3]; ramos): 1.2 | isoTOP-ABPP ratio P07858_C211 ([5]; 200 μM, insitu, 231): 7.4 | isoTOP-ABPP ratio Q9NXV6_C516 ([4]; 200 μM, insitu, 231): 7.7 | isoTOP-ABPP ratio Q96C19_C172 ([6]; 200 μM, insitu, 231): 2.4 | isoTOP-ABPP ratio, cysteine Q96RP9_C153 [7]; 231: 14.8 | isoTOP-ABPP ratio, cysteine Q9UNI6_C265 [8]: 1.2
Compound: O=C(CCl)N1CCN(S(=O)(=O)c2ccccc2F)CC1 [compound 10]

isoTOP-ABPP ratio Q9UPQ0_C140 ([2]; 100 μM in situ 231): 1.0 | isoTOP-ABPP ratio, cysteine P09110_C381 ([9]; 100 μM in situ 231): 0.8 | isoTOP-ABPP ratio P07858_C211 ([5]; 100 μM in situ 231): 1.1 | isoTOP-ABPP ratio Q9NXV6_C516 ([4]; 100 μM in situ 231): 1.0 | isoTOP-ABPP ratio Q96C19_C172 ([6]; 100 μM in situ 231): 0.9
Compound: Cn1cc(S(=O)(=O)N2CCOCC2)cc1C(=O)NC(=O)CCl [compound 11]

isoTOP-ABPP ratio Q9UPQ0_C140 ([2]; 200 μM, insitu, 231): 1.9 | isoTOP-ABPP ratio, cysteine P09110_C381 ([9]; 200 μM, insitu, 231): 4.5 | isoTOP-ABPP ratio O60825_C158 [3]; 231: 0.8 | isoTOP-ABPP ratio Q9NXV6_C516 ([4]; 200 μM, insitu, 231): 3.3 | isoTOP-ABPP ratio Q96C19_C172 ([6]; 200 μM, insitu, 231): 0.9 | isoTOP-ABPP ratio, cysteine Q96RP9_C153 [7]; 231: 20.0 | isoTOP-ABPP ratio, cysteine Q9UNI6_C265 [8]: 1.2
Compound: O=C(CCl)NC(=O)NC12CC3CC(CC(C3)C1)C2 [compound 12]

isoTOP-ABPP ratio, cysteine Q13158_C98 [1]: 1.6 | isoTOP-ABPP ratio Q9UPQ0_C140 ([2]; 200 μM, insitu, 231): 1.1 | isoTOP-ABPP ratio O60825_C158 ([3]; ramos): 0.9 | isoTOP-ABPP ratio P07858_C211 ([5]; 200 μM, insitu, 231): 1.6 | isoTOP-ABPP ratio Q9NXV6_C516 ([4]; 200 μM, insitu, 231): 2.4 | isoTOP-ABPP ratio Q9NXV6_C516 ([4]; 200 μM, insitu, ramos): 1.6 | isoTOP-ABPP ratio Q96C19_C172 ([6]; 200 μM, insitu, 231): 0.7 | isoTOP-ABPP ratio, cysteine Q96RP9_C153 ([7]; ramos): 0.8
Compound: O=C(CCl)NCCc1c[nH]c2ccccc12 [compound 13]
